Values quoted from earlier work as cited in US6989139B2, “Matrix metalloproteinase inhibitors” (Bristol-Myers Squibb Pharma Company, priority 2000, dated 2006).

Assays:
MMP's = conditions: literature statement
[1] = system: MMP-2, MMP-9 vs MMP-1, MMP-3; conditions: Lovejoy et al 1999

Molecule	MMP inhibitory activity (MMP's)	selectivity for MMP-2 and MMP-9 over MMP-1 [1]
2-[2-({5-[N-(5-(N-hydroxycarbamoyl)(5R)-5-{3-[4-(3,4-dimethoxyphenoxy)phenyl]-3-methyl-2-oxopyrrolidinyl}pentyl)carbamoyl](2-pyridyl)}amino)(1Z)-2-azavinyl]benzenesulfonic Acid [Example 15]	good activity	–
2-[(2-{[(N-{[4-({[7-(N-hydroxycarbamoyl)(3S,6R,7S)-4-aza-6-(2-methylpropyl)-11-oxa-5-oxobicyclo[10.2.2)hexadeca-1(15),12(16),13-trien-3-yl]-carbonylamino}methyl)phenyl]methyl}carbamoyl)methyl](carboxymeth yl)amino}ethyl){2-[bis(carboxymethyl)amino]ethyl}amino]acetic Acid [Example 8]	potent inhibition	–
O=C(NO)C1(CS(=O)(=O)c2ccc(Oc3ccc(Cl)cc3)cc2)CCOCC1 [Example 13]	–	selectivity for MMP-2 and MMP-9 over MMP-1
CC(C)C[C@H]1C(=O)N[C@H](C(=O)NCc2ccc(CNC(=O)C(CS(=O)(=O)O)NC(=O)CN3CCN(CC(=O)O)CCN(CC(=O)O)CCN(CC(=O)O)CC3)cc2)Cc2ccc(cc2)OCCC[C@@H]1C(=O)NO (stereo partly drawn) [Example 6, 2-[7-({N-[1-(N-{[4-({[7-(N-hydroxycarbamoyl)(3S,6R,7S)-4-aza-6-(2-methylpropyl)-11-oxa-5-oxobicyclo[10.2.2]hexadeca-1(15),12(16),13-trien-3-yl]-carbonylamino}methyl)phenyl]methyl}carbamoyl)-2-sulfoethyl]carbamoyl}methyl)-1,4,7,10-tetraaza-4,10-bis(carboxymethyl)cyclododecyl]acetic Acid]	nanomolar activity	–
